Molecules are shown by their SMILES. “Also recorded” adds a separate entry of the source.

These results are taken from patent EP4548971A1, “1,4-BENZOTHIAZEPINES AND RELATED COMPOUNDS WITH CYCLOPROPANOL GROUPS AS MULTI-TARGETED DRUGS” (Georg-August-Universität Göttingen Stiftung Öffentlichen …, priority 2023, dated 2025).

One data set concerns the target T1, SERCA2a (Mus musculus, UniProt O55143).
T1 construct: host or cells: HL-1 cardiac cells
Briefly: Caffeine-induced Ca2+ release assay on HL-1 cells. Type of data set: cell-based. On the set-up: key to SERCA2a HL-1 effect class: +++: a strong effect, comparable to or greater than that of a known compounds at a given concentration (25 µM in RyR2 R-CEPIA1er assay, 10 µM in caffeine assay and on microsomal membrane vesicles); ++: moderate effect; +: observable effect; -: no effect. Conditions: for SERCA2a HL-1 effect class: 10 µM in caffeine assay; for effect in caffeine-induced Ca^2+ release assay, in words: HL-1 cells incubated 2 h with compound; for effect in caffeine-induced Ca^2+ release assay, in words / EC50: 10 mM caffeine; for EC50: caffeine-induced Ca2+ release, range after the semicolon is not explained. The protocol: HL-1 cardiac cells (SCC065, Merck KGaA, Darmstadt, Germany) were cultivated in Claycomb's Medium (51800C, Merck KGaA, Darmstadt, Germany), supplemented with Glutamax, 10% fetal bovine serum, 0.9% Penicillin/Streptomycin and 0.1 mM Noradrenaline (Merck KGaA, Darmstadt, Germany) on fibronectin/gelatin (Merck KGaA, Darmstadt, Germany) coated culture bottles or plates two days before plating.
HL-1 cardiac cells (50000 per well) were cultivated for 24 h in black-walled, clear-bottom 96-well micro-plates (Corning, Amsterdam, The Netherlands) covered with fibronectin/gelatin (Merck KGaA, Darmstadt, Germany) in a humidified incubator at 37 °C and 5% CO2.
Changes in Ca^2+ concentration were measured on a multiwell plate reader TECAN Spark 20M using FLIPR 6 Calcium Assay Kit from Molecular Devices (Molecular Devices LLC, München, Germany) at 37 °C. The 1000 × stock solutions of the test compounds were prepared in DMSO. 100 µl solution of test compound in Tyrode's solution containing FLIPR Calcium 6 dye was incubated for 2 hours at 37°C and 5% COz in a humidified incubator. The time courses were recorded in each well. Fluorescence was evoked at 485 nm excitation wavelength and read out in a bottom-read mode at 525 nm. Data were recorded every 2 s, exposure - 20 flashes, excitation bandwidth - 10 nm, emission bandwidth - 15 nm. To initiate Ca^2+ influx, 25 µl of 50 mM caffeine solution in Tyrode's solution containing 2 mM CaCl2 was injected in each well (speed 100 µl/s) at 10 s time point, resulting in 10 mM final concentration in the well. The differences between the caffeine induced peak minus basal fluorescence, ΔFCaff, were taken for the analysis. The Tyrode's solution + 0.1 v/v% DMSO was used as a control. The dose response curves were calculated using the software package GraphPad Prism version 8.3.1. All data are presented as mean ± S.D. from 8 independent experiments. Y=Bottom + (Top-Bottom)/(1+10^((LogEC50-X)*HillSlope)) was used where HillSlope describes the steepness of the curve, Top and Bottom are plateaus in the units of the Y axis.
The SERCA2a activity of the compounds was confirmed in two orthogonal biochemical assays: caffeine-induced Ca^2+ release assay and nicotinamide adenine dinucleotide (NADH) assay on microsomal membrane vesicles from mouse heart ventricles (mouse SER) and HEK-293T cells (HEK-293 ER). The effect of caffeine-induced Ca^2+ release in HL-1 cells, immortalized mouse cardiomyocytes, treated with the cytosolic Ca^2+ indicator FLIPR Calcium 6 (Molecular Devices) was investigated.
When caffeine binds to the RyR channel, it interacts with specific amino acids of the protein, and this interaction causes conformational changes in the protein's structure [A. des Georges, O. B. Clarke, R. Zalk, Q. Yuan, K. J. Condon, R. A. Grassucci, W. A. Hendrickson, A. R. Marks, J. Frank, Structural Basis for Gating and Activation of RyR1. Cell 2016, 167, 145 - 157.e17]. This opens the RyR2 channel pore, enabling the mass release of calcium ions from the SER Ca^2+ store.

The test system of a further data set is HL-1 cardiac cells. Put plainly: CytoTox-Glo cytotoxicity assay (cell viability). Conditions: CytoTox-Glo assay in 100 µM solutions after 24 h incubation. It is filed as cell-based. The protocol:
Cell viability was assessed using CytoTox-Glo™ Cytotoxicity Assay according to the manufacturing procedure (Promega GmbH). Briefly, HL-1 cardiac cells were cultivated for 24 h in black-walled, clear-bottom 96-well micro-plates (Corning) covered with fibronectin in DMEM, containing different concentrations of the tested compound (10,000 cells/well). Luminescence of a luminogenic peptide substrate was measured before and after addition of the lysis reagent (digitonin). The viable cell contribution was determined by a subtractive method. 0.1% DMSO treated cell were taken as a control.
(§1) The membrane permeability of the derivatives was determined using cell-free transport models (PermeaPad®, innoME GmbH), and permeability rates (Pe), which are a measure of how fast a compound can cross a membrane, were established (Table 1).

A short description of data set [1]: Membrane permeability, PermeaPad plate (cell-free transport model). Type of data set: in vitro ADME. Conditions: for Pe: permeability rate, room temperature, 24 hours. As to the method:
Membrane permeability was assessed using PermeaPad® Plate according to the manufacturing procedure (innoME GmbH, Espelkamp, Germany). Briefly, 200 µl water was added into acceptor plate. 200 µl of 100 - 500 µM test compound in water was added directly to the well membranes of the donor plate. The donor plate contains a biomimetic membrane for simulating passive mass transfer through different barriers in the body. Then the donor plate was placed into the acceptor plate wells and incubated at room temperature for 24 hours in dark. To determine peak absorbance of test compounds, absorbance spectra of acceptor solutions and initial solutions for each test compound were read out. The Permeability Rate (Pe) was calculated using the formula: Pe = C × −ln(1−(ODA)/(ODE)) cm/s, [formula]
where ODA is the absorbance of acceptor solution, ODE is the absorbance of the standard solution; if the compound is able to permeabilize the membrane and fully reach equilibrium, 250 µM will be the final concentration of solution in the donor and acceptor wells. The coefficient C was calculated using the formula: C = (VD × VA)/((VD+VA) × Area × time), [formula] where VA - acceptor volume (cm^3), VD - donor volume (cm^3), membrane area 0.24 cm^2, time is 86,400 s.
as §1

T1 sequence (O55143 1-998 isoform O55143-2): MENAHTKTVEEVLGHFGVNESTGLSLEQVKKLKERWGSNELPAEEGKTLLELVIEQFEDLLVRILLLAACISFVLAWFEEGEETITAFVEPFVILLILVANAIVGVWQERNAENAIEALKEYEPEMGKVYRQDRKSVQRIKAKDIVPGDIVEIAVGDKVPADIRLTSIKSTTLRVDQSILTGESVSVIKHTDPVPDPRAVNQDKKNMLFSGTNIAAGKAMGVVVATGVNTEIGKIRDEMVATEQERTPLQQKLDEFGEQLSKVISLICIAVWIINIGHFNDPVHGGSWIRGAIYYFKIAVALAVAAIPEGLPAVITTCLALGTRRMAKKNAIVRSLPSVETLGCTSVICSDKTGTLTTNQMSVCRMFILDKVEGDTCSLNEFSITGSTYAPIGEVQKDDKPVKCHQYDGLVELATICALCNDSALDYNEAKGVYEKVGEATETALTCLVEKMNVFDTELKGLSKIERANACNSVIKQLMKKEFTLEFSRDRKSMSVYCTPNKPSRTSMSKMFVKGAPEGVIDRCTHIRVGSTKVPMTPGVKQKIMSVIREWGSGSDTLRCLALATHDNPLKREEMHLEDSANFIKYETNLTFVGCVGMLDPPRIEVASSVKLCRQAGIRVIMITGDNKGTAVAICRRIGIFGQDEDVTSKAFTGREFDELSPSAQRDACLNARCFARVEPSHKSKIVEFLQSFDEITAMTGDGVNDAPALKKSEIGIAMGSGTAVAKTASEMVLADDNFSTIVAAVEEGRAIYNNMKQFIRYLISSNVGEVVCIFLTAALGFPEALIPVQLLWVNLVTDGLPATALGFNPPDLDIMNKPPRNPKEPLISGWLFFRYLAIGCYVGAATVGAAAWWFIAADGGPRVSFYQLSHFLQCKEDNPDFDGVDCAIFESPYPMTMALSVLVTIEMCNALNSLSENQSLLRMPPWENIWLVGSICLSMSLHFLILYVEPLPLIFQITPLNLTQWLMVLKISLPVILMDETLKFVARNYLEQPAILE

`COc1ccc2c(c1)CN(CCCCC1(O)CC1)CCS2` [Compound 13d, 1-(4-(7-methoxy-2,3-dihydrobenzo[1,4-f]thiazepin-4(5H)-yl)butyl)cyclopropan-1-ol]: at SERCA2a, the “SERCA2a HL-1 effect class” value was “+” and the “effect in caffeine-induced Ca^2+ release assay, in words” value (shortened to “effect … in words”) was “least efficacious; also recorded: no saturation effect at concentrations up to 50 µM; also recorded: slight”. In addition, the Viability in the data set with HL-1 cardiac cells came out at 95%. Further, in data set [1], the “Pe rating in words (low / medium / high; poor)” value is “high” and the Pe is given as 3.6 10^-6 cm/s.

`COc1ccc2c(c1)CN(CCCCN(CCCCC1(O)CC1)CCCCC1(O)CC1)CCS2` [Compound 14a, 1,1'-(((4-(7-Methoxy-2,3-dihydrobenzo[1,4-f]thiazepin-4(5H)-yl)butyl)azanediyl)bis(butane-4,1-diyl))bis(cyclopropan-1-ol)]: on SERCA2a, the “SERCA2a HL-1 effect class” value is given as “++” and the EC50 stood at 9.2 µM. The Viability with HL-1 cardiac cells amounted to 80%. In addition, in data set [1], the “Pe rating in words (low / medium / high; poor)” value was “poor permeability and low”; the Pe was 0.6 10^-6 cm/s.

On to `COc1ccc(OCCCNCCCCC2(O)CC2)cc1` [Compound 13b, 1-(4-((3-(4-methoxyphenoxy)propyl)amino)butyl)cyclopropan-1-ol], for which, at SERCA2a, the “SERCA2a HL-1 effect class” value is reported as “++” and the 50% effective concentration (EC50) was found to be 8.6 µM. This molecule displayed a Viability in the data set on HL-1 cardiac cells of 100%. In data set [1], the “Pe rating in words (low / medium / high; poor)” value is listed as “high” and the Pe is given as 4.0 10^-6 cm/s.

Consider `COc1ccc2c(c1)CN(C(=O)C(=O)O)CCS2` [Compound S36, reference compound], for which, on SERCA2a, the “SERCA2a HL-1 effect class” value is on record as “-” and the “effect … in words” value is recorded as “no concentration dependent effect”. The molecule also gave a Viability with HL-1 cardiac cells of 94%. Moreover, in data set [1], the “Pe rating in words (low / medium / high; poor)” value was “poor permeability and low”; the Pe is reported as 1.0 10^-6 cm/s.

As for `COc1ccc(SCCCN(CCCCC2(O)CC2)CCCCC2(O)CC2)cc1` [Compound 14c, 1,1'-(((3-((4-Methoxyphenyl)thio)propyl)azanediyl)bis(butane-4,1-diyl))bis(cyclopropan-1-ol)], on SERCA2a, the “SERCA2a HL-1 effect class” value is given as “+++”; the “effect … in words” value was “most efficacious”; the EC50 came to 10.9 µM. For the same molecule, the Viability with HL-1 cardiac cells is recorded as 90%. In addition, in data set [1], the “Pe rating in words (low / medium / high; poor)” value is “high” and the Pe is recorded as 3.6 10^-6 cm/s.

In the case of `COc1ccc(SCCCNCCCCC2(O)CC2)cc1` [Compound 13c, 1-(4-((3-((4-Methoxyphenyl)thio)propyl)amino)butyl)cyclopropan-1-ol], at SERCA2a, the “SERCA2a HL-1 effect class” value is on record as “++” and a half-maximal response (EC50) required 7.6 µM. This molecule also had a Viability in the data set on HL-1 cardiac cells of 73%. Further, in data set [1], the “Pe rating in words (low / medium / high; poor)” value is given as “high” and the Pe is 6.9 10^-6 cm/s.

`COc1ccc2c(c1)CN(Cc1ccc(C(=O)O)cc1)CCS2` [ARM210, reference compound]: on SERCA2a, the “SERCA2a HL-1 effect class” value was “+” and the “effect … in words” value was “clear concentration-dependent effect”. The molecule also registered a Viability with HL-1 cardiac cells of 90%. In addition, in data set [1], the “Pe rating in words (low / medium / high; poor)” value is “high” and the Pe is given as 6.8 10^-6 cm/s.

`COc1ccc2c(c1)CN(CCCCNCCCCC1(O)CC1)CCS2` [Compound 13a, 1-(4-((4-(7-Methoxy-2,3-dihydrobenzo[1,4-f]-thiazepin-4(5H)-yl)butyl)amino)butyl)cyclopropan-1-ol]: at SERCA2a, the “SERCA2a HL-1 effect class” value is listed as “+”; the “effect … in words” value was “most potent”; the EC50 was determined as 2.2 µM. In the data set on HL-1 cardiac cells, this molecule displayed a Viability of 84%. Also, in data set [1], the “Pe rating in words (low / medium / high; poor)” value is “poor permeability and low”; the Pe is 0.8 10^-6 cm/s.
